Measurements taken from patent US4702864A, “Analogs of platelet activating factor” (E. I. Du Pont de Nemours and Company, priority 1986, dated 1987).

Assays:
[1] = biological target: porcine pancreatic PLA2 (Sus scrofa, UniProt P00592); experiment: Inhibition of porcine pancreatic phospholipase A2 (PLA2); format: biochemical; conditions: pH 8.5, 37°, 5 minutes, 14.0 uM substrate; approximation from semilog plot
Procedure: Inhibition of porcine pancreatic PLA2 was measured by a modification of the assay used by Hirata et al., Proc. Natl. Acad. Sci. USA 77:533 (1980). The enzyme-substrate reaction was run in a total volume of 0.1 mL with the enzyme at a final concentration of 19 units/mL (0.025 ug protein/mL) which gave approximately 4000-8000 dpm of activity in a buffer containing 25 mM Tris, 25 mM glycylglycine, 25 mM CaCl2 and 0.75 mM EDTA (tetra sodium salt), pH 8.5. Compounds to be tested as inhibitors were added to an aliquot of enzyme and incubated for 2 minutes, and then the substrate, [arachidonyl-1-^14 C] L-1-palmitoyl-2-arachidonyl phosphatidylcholine was added to provide a final concentration of 14.0 uM (80,000 dpm). The reaction was allowed to proceed for five minutes at 37°, and then halted by freezing the mixture in a dry ice-ethanol slurry. The arachidonic acid product was separated from unreacted substrate using silica gel columns.
All reactions were run in duplicate. Compounds to be tested were dissolved in 0.2M Tris-Cl, pH 8.5 or dissolved in DMSO and then diluted with Tris-Cl buffer (maximum DMSO concentration, 7%). An approximation of IC50 (the concentration of compound which inhibits the phospholipase activity by 50 percent) was determined for each compound from a semilog plot of percent inhibition versus the final inhibitor concentration.

[2] = test system: spontaneous hypertensive rat (SHR); experiment: Antihypertensive activity in the spontaneous hypertensive rat (SHR), intravenous; format: in vivo; set-up: key to Blood pressure response: ++: Pronounced decrease in blood pressure (>50 mm Hg); +: Moderate decrease in blood pressure (35-50 mm Hg); ±: Threshold decrease in blood pressure (25-35 mm Hg); NE: No effect observed; conditions: for Blood pressure response: SHR
Procedure: In this procedure, anesthetized rats were dosed intravenously with graded dose levels the test compound on a cumulative dose schedule. The test compound was administered in an aqueous 0.25% methylcellulose vehicle at a volume to body weight ratio of 1 mL/kg. Arterial blood pressure was continuously recorded directly through an arterial cannula and a polygraph. That dose of compound producing a reduction in mean blood pressure of 30 mm Hg, or ED30, was then determined. In this manner, an ED30 of 2.00 mg/kg was determined for compound 13BII.
The antihypertensive activity of other compounds within the scope of the present invention was determined by methods substantially similar to those reported in Example 2, above, except that intravenous dosage levels of 2 and 12 mg/kg were employed. The designation "prolonged" indicates a hypotensive response lasting from 15-30 minutes. The following designations are employed to indicate the magnitude of hypotensive response: […]

[3] = test system: tetradecanoyl phorbol acetate (TPA)-induced edema in murine ear; experiment: Topical anti-inflammatory activity, TPA-induced mouse ear edema; format: in vivo, male CF1 mice; conditions: in acetone just prior to 1 μg TPA, 4 hours after TPA
Procedure: Topical application of tetradecanoyl phorbol acetate (TPA) to murine skin results in an inflammatory reaction characterized by edema, a dense cellular infiltration 4-6 hours later, and an epidermal hyperplasia 24 hours following application.
To evaluate the antiinflammatory activity of certain compounds within the scope of the present invention, TPA was applied topically to ear epidermal tissue of male CF1 mice 4-6 weeks old. One μg of TPA in acetone was applied topically to one ear, while acetone only was applied to the contralateral ear of each mouse. Test compounds to be evaluated as antiinflammatory agents were applied to both ears in acetone just prior to application of TPA. Four hours after the application of the TPA, the animals were sacrificed, and 6 mm disks of tissue were excised from each treated ear and weighed. The relative amount of edema was then assessed by determining the difference in mass between control and TPA-treated tissue samples.

porcine pancreatic PLA2, sequence (P00592 23-146): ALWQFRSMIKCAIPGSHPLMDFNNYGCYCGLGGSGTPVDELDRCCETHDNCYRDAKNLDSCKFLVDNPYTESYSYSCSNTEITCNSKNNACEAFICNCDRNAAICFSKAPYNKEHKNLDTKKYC

| SMILES | IC50 [1] [µM] | Blood pressure response ([2]; 2 mg/kg) | Blood pressure response ([2]; 12 mg/kg) | Ear Volume Reduction (%) [3] [%] | ED (30 mm Hg) ([2]; Rattus norvegicus, anesthetized SHR, cumulative dose schedule, aqueous 0.25% methylcellulose, read-out: ED30 (dose of compound producing a reduction in mean blood pressure of 30 mm Hg)) [mg/kg] |
| --- | --- | --- | --- | --- | --- |
| CCCCCCSCC(COP(=O)([O-])OCC[N+](C)(C)C)NC(C)=O (stereo not shown) [Compound 10E] | 98 |  |  |  |  |
| CCCCCCCCCCCCCCCCSCC(COP(=O)([O-])OCC[N+](C)(C)C)NC(C)=O (stereo not shown) [Compound 10C] | 1.1 |  |  |  |  |
| CCCCCCCCCCCCCCCCCCSCC(COP(=O)([O-])OCC[N+](C)(C)C)NC(C)=O (stereo not shown) [Compound 10B, 3-Octadecylthio-2-acetamidophosphatidylcholine] | 0.52 | ++ (Pronounced decrease in blood pressure (>50 mm Hg)) |  | 10 |  |
| CCCCCCCCSCC(COP(=O)([O-])OCC[N+](C)(C)C)NC(C)=O (stereo not shown) [Compound 10D] | 9 | NE | ++ (Pronounced decrease in blood pressure (>50 mm Hg)) |  |  |

More lines, main results first:

| IC50 [1] [µM] | SMILES | Blood pressure response ([2]; 2 mg/kg) | Blood pressure response ([2]; 12 mg/kg) | Ear Volume Reduction (%) [3] [%] | ED (30 mm Hg) ([2]; Rattus norvegicus, anesthetized SHR, cumulative dose schedule, aqueous 0.25% methylcellulose, read-out: ED30 (dose of compound producing a reduction in mean blood pressure of 30 mm Hg)) [mg/kg] |
| --- | --- | --- | --- | --- | --- |
| 1.4 | CCCCCCCCCCCCCCCCSCC(COP(=O)([O-])OCC[N+](C)(C)C)NC(=O)c1ccccc1 (stereo not shown) [Compound 13CIV] | NE | ± (Threshold decrease in blood pressure (25-35 mm Hg)) | 57 |  |
| 0.55 | CCCCCCCCCCCCCCCCCCSCC(COP(=O)([O-])OCC[N+](C)(C)C)NC(=O)CCCCCCCCCCCCCCCCC (stereo not shown) [Compound 13BI] |  |  |  |  |
| 18 | CCCCCCCCCCCCCCCCSCC(COP(=O)([O-])OCC[N+](C)(C)C)NC(=O)OC (stereo not shown) [Compound 13CII] | ++ (Pronounced decrease in blood pressure (>50 mm Hg)) |  |  |  |
| 19 | CCCCCCCCCCCCCCCCCCSCC(COP(=O)([O-])OCC[N+](C)(C)C)NC(=O)OC (stereo not shown) [Compound 13BII, 3-octadecylthio-2-carbomethoxyamidophosphatidylcholine] | ± (Threshold decrease in blood pressure (25-35 mm Hg)) | ++ (Pronounced decrease in blood pressure (>50 mm Hg)) |  | 2 |
